Laboratory results taken from patent US11129801B2 (SigmaThera SAS, priority 2016, dated 2021).
Where “and” joins values, the source holds several entries; their conditions need not be identical. Equal values may be shown once.

Key:
[1] = tested on: hippocampal lipid peroxidation; experiment: Hippocampal lipid peroxidation (LPO) measurement, Aβ25-35 mouse model; format: in vivo; details: for hippocampal LPO levels: 1 mg/kg
Procedure: (§1) For each of Experiments 1-4, on day 7, all animals were tested for the spontaneous alternation performance in the Y-maze test, an index of spatial working memory. On day 8 and 9, the contextual long-term memory of the animals was assessed using the step-through type passive avoidance procedure. On day 9, immediately after the retention session, animals were sacrificed by decapitation and the hippocampus and cortex dissected out. Lipid peroxidation was analyzed in the hippocampus, whereas neuroinflammation, apoptosis, amyloid burden and hyperphosphorylation of tau protein were analyzed in cortex.
Sacrifice: At the end of the passive avoidance retention session, on day 9, the animals were sacrificed by decapitation. The hippocampi and frontal cortex were dissected out and kept at −80° C. until the measurement of lipid peroxidation and other markers.
Lipid peroxidation measurement: At day 24, 6 hippocampi from each group were used. After thawing, homogenates were homogenized in cold methanol ( 1/10 w/v), centrifuged at 1,000 g during 5 min and the supernatant placed in Eppendorf tube. The reaction volume of each homogenate was added to FeSO4 1 mM, H2SO4 0.25 M, xylenol orange 1 mM and incubated for 30 min at room temperature. After reading the absorbance at 580 nm (A5801), 10 μl of cumene hydroperoxyde (CHP) 1 mM was added to the sample and incubated for 30 min at room temperature, to determine the maximal oxidation level. The absorbance was measured at 580 nm (A5802). The level of lipid peroxidation was determined as CHP equivalents according to: CHPE=A5801/A5802×[CHP (nmol)] and expressed as CHP equivalents per wet weight of tissue and as percentage of control group data (Veh-treated Sc.Aβ-administered mice).

[2] = tested on: caspase 12; experiment: ELISA of cortical caspase 12, Aβ25-35 mouse model; format: in vivo; details: Experiment 2, post-treatment, 1 mg/kg
Procedure: (§2) In Experiment 2, twelve mice per experimental group were administered Sc.Aβ or Aβ25-35-amyloid peptide on day 0 by i.c.v. injection. […] Animals were tested at day 7 and later.
as §1
(§3) Enzyme-linked immunosorbant assay (ELISA) assays: Contents in GFAP, Caspase 12, Amyloid-beta 1-40, Amyloid-beta 1-42, Total Tau, and pTau on Ser199 were analyzed by using commercial ELISA assay kit. • GFAP: Supplier: USCNK #Ref: SEA068Mu • Total Tau: Supplier: Novex #Ref: KMB7011 • pTau (S199): Supplier: Novex #Ref: KMB7041 • Amyloid beta 1-40: Supplier: Novex #Ref: KMB3481 • Amyloid beta 1-42: Supplier: Novex #Ref: KMB3441 • Caspase-12: Supplier: LSBio #Ref: LS-F11023 • BAX: Supplier: Euromedex#Ref: SEB343Mu • BCL2: Supplier: Euromedex #Ref: SEA778Mu […]

[3] = tested on: Aβ25-35 mouse model of Alzheimer's disease; experiment: Spontaneous alternation in the Y-maze, Aβ25-35 mouse model; format: in vivo
Procedure: The compound efficacy was evaluated 7 days after the peptide administration on the attenuation of the Aβ25-35-induced learning deficits (spatial working memory using the spontaneous alternation in the Y-maze test, and contextual long-term memory using the passive avoidance test).
The mice were tested 7 days post injection or at the indicated time points.
as §2
The synergy/additivity/antagonism was evaluated by calculating the combination index. […] Animals were then tested at day 7 and later.
Animals were tested at day 7 and later.
as §1
The homogeneous oligomeric preparation of Aβ25-35 peptide was performed according to the AMYLGEN's own procedure. Each mouse was anesthetized with isoflurane 2.5% and injected i.c.v. with Aβ25-35 peptide (9 nmol/mouse) or Sc.Aβ peptide (9 nmol/mouse), in a final volume of 3 μl/mouse, according to the previously described method (Maurice T, et al. (1996). Brain Res. 706(2): 181-193, Maurice T, et al. (1998) Neuroscience 83(2): 413-428, Meunier J, et al. (2006) British J. Pharmacol. 149(8): 998-1012, Villard V, et al. (2009) Neuropsychopharmacology 34(6): 1552-1566, Villard V, et al. (2011) J. Pharmacol. Sci. 115(3): 279-292).
Animals: Male Swiss mice, 6 weeks old and weighing 30-35 g, from JANVIER (Saint Berthevin, France), were kept for housing and experiments took place within the animal facility building of the University of Montpellier 2 (CECEMA, Office of Veterinary Services agreement #B-34-172-23). Animals were housed in groups with access to food and water ad libitum, except during behavioral experiments. They were kept in a temperature and humidity controlled animal facility on a 12 h/12 h light/dark cycle (lights off at 07:00 pm). Mice were numbered by marking their tail using permanent markers. All animal procedures were conducted in strict adherence to the European Union directive of Sep. 22, 2010 (2010/63/UE). Diagnostic summary reports of JANVIER were annexed to the study report.
Spontaneous alternation performance: Immediate working memory performance was assessed by recording spontaneous alternation behavior during a single session in a Y-maze as described previously (Itoh J, et al. (1993) Eur J Pharmacol 236(3): 341-345; Hiramatsu M and Inoue K (1999) Br J Pharmacol 127(3): 655-660). The Y-maze is made of grey polyvinylchloride. Each arm of the Y-maze was 40 cm long, 3 cm wide, and 13 cm high at the bottom, 10 cm wide at the top, and converging at an equal angle. Each mouse was placed at the end of one arm and allowed to move freely through the maze during an 8 min session. The series of arm entries, including possible returns into the same arm, was checked visually. An alternation was defined as entries into all three arms on consecutive occasions. The number of maximum alternations is therefore the total number of arm entries minus two and the percentage of alternation was calculated as (actual alternations/maximum alternations)×100. Parameters included the percentage of alternation (memory index) and total number of arm entries (exploration index).

[4] = tested on: Tau protein phosphorylated on Serine 199 (pTauS199); experiment: ELISA of cortical pTauS199, Aβ25-35 mouse model; format: in vivo; details: Experiment 2, post-treatment
Procedure: as §2, §1, §3

[5] = tested on: sigma-1R; details: read-out: IC50 / affinity for sigma-1R; cited from earlier work
[6] = tested on: gerbil model of global cerebral ischemia; details: cited from earlier work

## CCC(C/C=C/c1ccccc1)(c1ccccc1)N(C)CC1CC1 (single isomer, unassigned; (+)) [igmesine, (+)-(E)-N-(cyclopropylmethyl)-N-methyl-3,6-diphenylhex-5-en-3-amine]
[1]; Experiment 1, pre-treatment
  hippocampal LPO levels: fully normalized
[1]; Experiment 2, post-treatment
  hippocampal LPO levels: fully normalized
[1]; Experiment 3, igmesine 0.1 mg/kg + donepezil […]
  synergy on hippocampal LPO with donepezil: did synergize
[1]; Experiment 3, igmesine 0.1 mg/kg + memantine
  synergy on hippocampal LPO with memantine: synergy was not present
[2]
  cortical caspase 12 elevation: fully normalized
[3]; Experiment 1, i.p. 20 min before Aβ25-35, 0.1, 0.3, 1 mg/kg
  prevention of Aβ25-35-induced spontaneous alternation deficits: dose-dependently prevented
[3]; Experiment 2, post-treatment i.p. day 1 to day 6
  prevention of Aβ25-35-induced spontaneous alternation deficits: prevented the Aβ25-35-induced deficits at the highest doses tested
[3]; Experiment 3, i.p.
  highest sub-active dose, spontaneous alternation: 0.1 mg/kg
[4]
  elevation of cortical pTauS199: fully normalized
[5]
  IC50: 39 ± 8 nM
[6]
  effective doses, neuroprotective effects: 50 mg/kg and 75 mg/kg and 100 mg/kg
